Values after ≈ are worked out from the molar mass of the structure shown.
Columns and labels:
[1] = system: Candida tropicalis (BNCC340288); assay: microbe, parasite or virus in culture; details: 24 h, read-out: MIC, C. tropical
[2] = system: Candida parapsilosis (BNCC336015); assay: microbe, parasite or virus in culture; details: Lodderomyces parapsilosis, 24 h, read-out: MIC, C. parapsilosis

## Clc1ccccc1C(c1ccccc1)(c1ccccc1)n1ccnc1 [clotrimazole]
[1]
  MIC: 12.5 µM (≈ 4.31 µg/mL)
[2]
  MIC: 25 µM (≈ 8.62 µg/mL)
